Reference: patent US7767789B2, “Truncated proteins as cancer markers” (University Hopitals of Cleveland, priority 2005, dated 2010)
“Also recorded” adds a separate entry of the source. Like-named read-outs stand apart in the source and are kept apart here.

What was measured:
[1] = tested on: hECEs, ECE16-1, HT3, CaSki, SiHa and Hela cells; conditions: cited from earlier work
[2] = tested on: Bcl-2; conditions: cited from earlier work
[3] = tested on: caspase-9; conditions: hECEs and CaSki cells; cited from earlier work
[4] = tested on: P2X7 receptor; conditions: cited from earlier work
[5] = tested on: CaSki cells; test: Number of CaSki cells in culture; format: cell-based, human; conditions: serum-free; 0.2 nM EGF, 2 nM epinephrine, or both, 24 h
Experimental: Near-confluent cultures of CaSki cells on filters were shifted for 14 hours to serum-free medium supplemented with 1% BSA and were treated in the same medium with 0.2 nM EGF, 2 nM epinephrine, or both for an additional 24 h. At the completion of treatments, cells were harvested off the filters and counted.

[6] = tested on: CaSki cells; test: DNA synthesis by [3H]thymidine incorporation; format: cell-based, human; conditions: 0.2 nM EGF, 2 nM epinephrine
Experimental: The experiments used CaSki cells, a line of transformed cervical epithelial cells that were obtained from the ATCC (Manassas, Va.) and were previously characterized as stably expressing phenotypic characteristics of human cervical epithelial cells. Cells were grown and subcultured in RPMI-1640 supplemented with 8% fetal calf serum, 0.2% NaHCO3, nonessential amino acids (0.1 mM), L-glutamine (2 mM), penicillin (100 U/ml), streptomycin (100 μg/ml), and gentamycin ([…]) at 37° C. in a […] humidified incubator. Cultures were routinely tested for mycoplasma. Preliminary experiments were conducted on cells plated on culture plates, and definitive experiments were repeated on cells plated on filters. Filters were either Anocell (Anocell-10, Oxon, UK, obtained through Sigma Chemicals, St. Louis, Mo.), Transwell (Costar Corporation, Cambridge, Mass.), or Millicell-CM (Millipore, Bedford, Mass.). Filters were coated on their upper (luminal) surface with 3-5 μg/cm collagen type IV and incubated at 37° C. overnight. […] DNA synthesis DNA synthesis was measured by [^3H]thymidine incorporation. […] The radioactivity [dpm/mg protein, determined by Bio-Rad (Hercules, Calif.) Protein Assay solution] of triplicated samples was determined by scintillation counting (LS1801 scintillation counter; Beckman, Fullerton, Calif.).

[7] = tested on: CaSki cells; test: DNA solubilization assay (apoptosis); format: cell-based, human
Experimental: Twenty-four hours before the end of the experiment, cells were labeled with [^3H]thymidine (specific activity, 93 Ci/mmol; 5 μCi/1×10^6 cells) for 16 h. The medium was removed, and cells were washed three times with fresh medium lacking [^3H]thymidine and were incubated in the same medium for an additional 6 h. At the end of incubation, the supernatant was stored, and cells were lysed in 0.5 ml lysis buffer (10 mM Tris-HCl, pH 7.5; plus 1 mM EDTA-0.2% Triton X-100) for 1 h at 4° C. The intact chromatin was separated from the fragmented DNA by 5 min centrifugation at 4° C. in Eppendorf microcentrifuge at 12,000×g. The supernatant (lysate) was stored, while the pellet was resuspended in 0.5 ml of 1% sodium dodecyl sulfate (SDS). The radioactivity contained in the supernatants, lysates; and pellets was counted in a scintillation counter, and DNA fragmentation was calculated as: [% Solubilized DNA]=([cpm supernatant+cpm lysates]/[cpm supernatant+cpm lysate+cpm pellet])×100.

| Substance | P2X7 receptor-induced apoptosis ([1]; SiHa and Hela cells) | earliest effects after adding the hormone [1] [h] | baseline and P2X7 receptor-induced apoptosis ([1]; hECEs, ECE16-1, HT3, and CaSki cells) | Bcl-2 regulation ([2]; CaSki cells) | Bcl-2 regulation ([2]; SiHa and Hela cells) | P2X7 receptor-induced activation of caspase-9 [3] | BzATP-induced calcium influx ([4]; cancer CaSki cells) | BzATP-induced calcium influx ([4]; normal hECEs) | number of cells in culture [5] | [3H]thymidine incorporation [6] | effect on TNFα-induced increase in DNA solubilization ([7]; pretreatment 24 h: 1 μM zinterol or 0.2 nM EGF) | effect on BzATP-induced apoptosis (DNA solubilization) ([7]; pretreatment: EGF 0.2 nM, zinterol/terbutaline 1 μM 24 h, forskolin 10 μM 14 h with IBMX, isoproterenol 10 μM, phenylephrine 100 μM) |
| --- | --- | --- | --- | --- | --- | --- | --- | --- | --- | --- | --- | --- |
| 17β-estradiol [estrogen] | no effect | 1 to 3 | blocked baseline and P2X7 receptor-induced apoptosis | upregulated Bcl-2 | did not find estrogen regulation of Bcl-2 | blocked P2X7 receptor-induced activation of caspase-9 | only a mild effect | did block BzATP-induced calcium influx |  |  |  |  |
| EGF: Human recombinant EGF, epidermal growth factor |  |  |  |  |  |  |  |  | increased the number of cells in culture | increased [^3H]thymidine incorporation | no significant effect | little effect; also recorded: no significant effect |
